We go through five compounds from US20180016259A1, “QUINAZOLINE INHIBITORS OF ACTIVATING MUTANT FORMS OF EPIDERMAL GROWTH FACTOR RECEPTOR” (AstraZeneca AB, priority 2013, published 2018).

The structures appear in SMILES notation. Read-outs that look alike come from different tables or passages of the source.

Data set [1] is described as follows: Brain blood barrier penetration assay (short oral absorption model with in vitro blood and brain binding). It is filed as in vivo. The conditions noted are these: male Han Wistar rats, oral 2 mg/kg in 1% methylcellulose; for Kp uu: rat. An excerpt: Both Kp,uu brain and Kp,uu CSF should be the main parameters measured and optimized in CNS drug discovery (Di L et al., Journal of Medicinal Chemistry [2013], 56: 2-12). Kp,uu brain, the relationship between concentrations of unbound drug in brain and in blood, predicts drug action on metastatic tumors in brain Leptomeningeal metastasis (LM) results from metastatic spread of cancer to the leptomeninges, giving rise to central nervous system dysfunction. Kp,uu CSF represents the distribution of drug in CSF as compared to that in blood, which drives drug response during leptomeningeal metastasis treatment.
In vitro blood and brain binding assay was carried out on a HT-Dialysis plate (Gales Ferry, Conn.) with semi-permeable membrane. Diluted blood (1:1 with DPBS pH7.4) and brain homogenate (1:3 with DPBS pH7.4) were spiked with 5 μM test compound (in triplicate) and dialyzed against equal volume of 150 μL 100 mM PBS buffer (pH7.4) at 37° C. for 4 hours in a slowly rotated plate. At the end of incubation, a 50 μL aliquot from the receiver side and a […] from the donor chamber were taken. The 5 μL sample was further diluted with 45 μL of blank blood or brain homogenate. Paired samples were matrix-matched with either buffer or blank blood/brain homogenate and mixed for 2 min, and then precipitated with 150 μL cold acetonitrile with 100 ng/mL tolbutamide as internal standard. After centrifuging at 4000 rpm for 20 min, supernatant was diluted with 0.1% formic acid aqueous solution and analyzed for LC/MS/MS (API 4000, Applied Biosystems, Foster City). […]. D is dilution factor.
A Short oral absorption (SOA) model is an in-vivo screening model to identify brain penetration of a compound. Six male Han Wistar rats purchased from Beijing Vital River were orally dosed with the compound at 2 mg/kg in 1% methylcellulose. At 0.25, 0.5, 1, 2, 4 and 7 hour post-dose, cerebral spinal fluid (CSF) was collected from cisterna magna, and blood samples (>60 μL/time point/each site) were collected via cardiac puncture, into separate EDTA […] tubes, and then immediately diluted with 3-fold volume of water. Brain tissue was harvested and homogenized in 3× volume of 100 mM phosphate buffered saline (pH7.4). All samples were stored at ˜−70° C. prior to LC/MS/MS analysis.
Standards were prepared by spiking blank blood, brain homogenate and artificial CSF covering 0.2 to 500 ng/mL. Homogenized brain tissue along with blood samples were precipitated by adding 3-fold volume of cold acetonitrile containing internal standard (40 ng/mL Dexamethasone and 40 ng/mL Diclofenac), and 10 μL of CSF samples were precipitated with 100 μL of cold acetonitrile containing internal standard. After 2 min vortex and 5 min centrifugation at 14,000 rpm, supernatant was analyzed by LC/MS/MS (API 4000, Applied Biosystems, Foster City). Two sets of standard curves were run at the beginning and end of each batch from blood sample analysis. For brain and CSF samples, one standard curve was analyzed along with test samples.
Total brain levels, expressed as brain/blood ratio (Kp,brain) were measured by AUCbrain/AUCblood in rodents after oral administration. Free fraction of test compound in biological matrix was determined by in vitro blood and brain binding assay. Kp,uu brain and Kp,uu CSF were calculated by the following equation: Kp,uu brain=AUCbrain/AUCblood×(fu,brain/fu.blood) and Kp,uu CSF=AUCCSF/(AUCblood×fu.blood).

The conditions of data set [2]: literature reports; cited from earlier work.

Take `COc1cc2ncnc(Nc3cccc(Cl)c3F)c2cc1OC(=O)N1CCN(C)C[C@H]1C` [Example 1, 4-[(3-Chloro-2-fluorophenyl)amino]-7-methoxyquinazolin-6-yl (2R)-2,4-dimethylpiperazine-1-carboxylate]: the Kp uu lay within 1 to 1.3 in data set [1] (male, Han Wistar, in vivo, po, 2 mg/kg, AUCCSF/(AUCblood x fu,blood), read-out: Kp, uu CSF) and 0.8 to 1.3 in data set [1] (male, Han Wistar, in vivo, po, 2 mg/kg, AUCbrain/AUCblood x (fu,brain/fu,blood), read-out: Kp, uu brain).

Regarding `COc1cc2ncnc(Nc3cccc(Cl)c3F)c2cc1OC(=O)N1CCN(C)C[C@@H]1C` [Example 3, 4-[(3-Chloro-2-fluorophenyl)amino]-7-methoxyquinazolin-6-yl (2S)-2,4-dimethylpiperazine-1-carboxylate], the Kp uu in data set [1] (CSF / blood, AUCCSF/(AUCblood x fu,blood), read-out: Kp, uu CSF) is 2.6.

In the case of `CN(C)C/C=C/C(=O)Nc1cc2c(Nc3ccc(F)c(Cl)c3)ncnc2cc1O[C@H]1CCOC1` [afatinib], the “adverse effects, such as skin rash and diarrhoea, share of NSCLC patients treated” value in data set [2] is given as over 90%.

Regarding `COc1cc2ncnc(Nc3ccc(F)c(Cl)c3)c2cc1NC(=O)/C=C/CN1CCCCC1` [dacomitinib], the “adverse effects, such as skin rash and diarrhoea, share of NSCLC patients treated” value in data set [2] is recorded as over 90%.

Take `CNC(=O)CN1CCC(Oc2cc3c(Nc4cccc(Cl)c4F)ncnc3cc2OC)CC1` [sapitinib]: the “Kp, uu CSF” value in data set [1] (AUCCSF/(AUCblood x fu,blood)) is “Below quantification limit”. Moreover, the Kp uu in data set [1] (AUCbrain/AUCblood x (fu,brain/fu,blood), read-out: Kp, uu brain) is 0.13.
